# Results reported in patent publication US20240217957A1, “HETEROCYCLIC COMPOUND AND USE THEREOF” (TAKEDA PHARMACEUTICAL COMPANY LIMITED, priority 2022, published 2024).
# Target: T1, human OX2 receptor (Homo sapiens, UniProt O43614)
# T1 construct: expressed in transfected cells
# T1 sequence (O43614 1-444): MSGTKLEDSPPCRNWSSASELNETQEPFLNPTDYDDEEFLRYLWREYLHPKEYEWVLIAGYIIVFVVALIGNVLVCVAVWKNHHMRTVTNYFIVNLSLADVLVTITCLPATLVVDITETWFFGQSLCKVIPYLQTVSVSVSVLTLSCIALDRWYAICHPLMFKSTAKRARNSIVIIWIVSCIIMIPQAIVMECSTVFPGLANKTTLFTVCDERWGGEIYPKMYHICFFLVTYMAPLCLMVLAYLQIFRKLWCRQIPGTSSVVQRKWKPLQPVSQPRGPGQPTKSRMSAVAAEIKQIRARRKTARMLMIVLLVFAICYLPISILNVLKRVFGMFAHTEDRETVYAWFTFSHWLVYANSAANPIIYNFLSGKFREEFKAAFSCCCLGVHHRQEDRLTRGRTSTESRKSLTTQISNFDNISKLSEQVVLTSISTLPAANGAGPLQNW
# Assay: Measurement of orexin type 2 receptor agonist activity (calcium fluorescence, Fluo-4 AM, FDSS)
# Type: cell-based
# Details: compound at 3 μM; CHO cells forcibly expressing human OX2 receptor; DMSO = 0%, 10 nM orexin A (human) = 100%
# How it was run: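 Agonist response is expressed as % of the fluorescence change given by 10 nM human orexin A, with DMSO as 0%, read over 1 min 40 s on FDSS after compound addition. Cells: stable human OX2 (1-444) CHO-K1 clones, dye-loaded with Fluo-4 AM plus probenecid in HEPES-buffered HBSS with 0.1% BSA.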
row,Compound,"OX2R agonist activity (3 μM, %) [%]"
1,"CCS(=O)(=O)N[C@H]1CCN(C2=NOC(CF)(c3ncc(F)cc3-c3c(F)cccc3F)C2)C1 (stereo partly drawn) [Example 88, N-[(3S)-1-{5-[3-(2,6-difluorophenyl)-5-fluoropyridin-2-yl]-5-(fluoromethyl)-4,5-dihydro-1,2-oxazol-3-yl}pyrrolidin-3-yl]ethanesulfonamide]",112
2,"CS(=O)(=O)N[C@@H]1CN(C2=NOC(CF)(c3ncccc3-c3c(F)cc(F)cc3F)C2)CC1(F)F (stereo partly drawn) [Example 157, N-[(3R)-4,4-difluoro-1-{5-(fluoromethyl)-5-[3-(2,4,6-trifluorophenyl)pyridin-2-yl]-4,5-dihydro-1,2-oxazol-3-yl}pyrrolidin-3-yl]methanesulfonamide]",92
3,"Cc1cnc(C2(CO)CC(N3C[C@@H](NS(C)(=O)=O)C(F)(F)C3)=NO2)c(-c2c(F)cc(F)cc2F)c1 (stereo partly drawn) [Example 16, N-[(3R)-4,4-difluoro-1-{5-(hydroxymethyl)-5-[5-methyl-3-(2,4,6-trifluorophenyl)pyridin-2-yl]-4,5-dihydro-1,2-oxazol-3-yl}pyrrolidin-3-yl]methanesulfonamide]",99
4,"CS(=O)(=O)N[C@@H]1CN(C2=NOC(c3ncc(C4CC4)cc3-c3c(F)cc(F)cc3F)C2)CC1(F)F (stereo partly drawn) [Example 18, N-[(3R)-1-{5-[5-cyclopropyl-3-(2,4,6-trifluorophenyl)pyridin-2-yl]-4,5-dihydro-1,2-oxazol-3-yl}-4,4-difluoropyrrolidin-3-yl]methanesulfonamide]",103
5,"Cc1cnc(C2CC(N3CC(F)(F)C3CNS(C)(=O)=O)=NO2)c(-c2c(F)cc(F)cc2F)c1 (stereo not drawn) [Example 17, N-[(3,3-difluoro-1-{5-[5-methyl-3-(2,4,6-trifluorophenyl)pyridin-2-yl]-4,5-dihydro-1,2-oxazol-3-yl}azetidin-2-yl)methyl]methanesulfonamide]",80
6,"Cc1cnc([C@@H]2CC(N3C[C@H](F)[C@H](NS(=O)(=O)CF)C3)=NO2)c(-c2c(F)cccc2F)c1 [Example 68, N-[(3R,4S)-1-{(5S)-5-[3-(2,6-difluorophenyl)-5-methylpyridin-2-yl]-4,5-dihydro-1,2-oxazol-3-yl}-4-fluoropyrrolidin-3-yl]-1-fluoromethanesulfonamide]",104
7,"Cc1cnc(C2(C)CC(N3C[C@@H](NS(C)(=O)=O)C(F)(F)C3)=NO2)c(-c2c(F)cccc2F)c1 (stereo partly drawn) [Example 76, N-[(3R)-1-{5-[3-(2,6-difluorophenyl)-5-methylpyridin-2-yl]-5-methyl-4,5-dihydro-1,2-oxazol-3-yl}-4,4-difluoropyrrolidin-3-yl]methanesulfonamide]",108
8,"CS(=O)(=O)N[C@@H]1CN(C2=NOC(CF)(c3ncc(C(F)F)cc3-c3c(F)cccc3F)C2)CC1(F)F (stereo partly drawn) [Example 153, N-[(3R)-1-{5-[5-(difluoromethyl)-3-(2,6-difluorophenyl)pyridin-2-yl]-5-(fluoromethyl)-4,5-dihydro-1,2-oxazol-3-yl}-4,4-difluoropyrrolidin-3-yl]methanesulfonamide]",96
9,"CS(=O)(=O)N[C@@H]1CN(C2=NOC(c3ncc(F)cc3-c3c(F)cccc3F)C2)CC1(F)F (stereo partly drawn) [Example 69, N-[(3R)-1-{5-[3-(2,6-difluorophenyl)-5-fluoropyridin-2-yl]-4,5-dihydro-1,2-oxazol-3-yl}-4,4-difluoropyrrolidin-3-yl]methanesulfonamide]",95
10,"Cc1cnc([C@@H]2CC(N3CC[C@H](NS(=O)(=O)C4(F)CC4)C3)=NO2)c(-c2c(F)cc(F)cc2F)c1 [Example 46, 1-fluoro-N-[(3S)-1-{(5S)-5-[5-methyl-3-(2,4,6-trifluorophenyl)pyridin-2-yl]-4,5-dihydro-1,2-oxazol-3-yl}pyrrolidin-3-yl]cyclopropane-1-sulfonamide]",99
11,"Cc1ccc(C2(C)CC(N3C[C@@H](NS(C)(=O)=O)C(F)(F)C3)=NO2)c(-c2ncc(F)cc2F)c1 (stereo partly drawn) [Example 161, N-[(3R)-1-{5-[2-(3,5-difluoropyridin-2-yl)-4-methylphenyl]-5-methyl-4,5-dihydro-1,2-oxazol-3-yl}-4,4-difluoropyrrolidin-3-yl]methanesulfonamide]",103
12,"CS(=O)(=O)N[C@H]1CCCN(C2=NOC(c3ccccc3-c3c(F)cccc3F)C2)C1 (stereo partly drawn) [Example 6, N-{(3S)-1-[5-(2′,6′-difluoro[1,1′-biphenyl]-2-yl)-4,5-dihydro-1,2-oxazol-3-yl]piperidin-3-yl}methanesulfonamide]",98
13,"Cc1cnc(C2CC([C@H]3CC[C@@H](NS(C)(=O)=O)CC3)=NO2)c(-c2c(F)cc(F)cc2F)c1 (stereo partly drawn) [Example 24, N-[(1s,4s)-4-{5-[5-methyl-3-(2,4,6-trifluorophenyl)pyridin-2-yl]-4,5-dihydro-1,2-oxazol-3-yl}cyclohexyl]methanesulfonamide]",20
14,"CS(=O)(=O)N[C@@H]1CN(C2=NOC(c3c(F)cc(Cl)cc3-c3ncc(F)cc3F)C2)CC1(F)F (stereo partly drawn) [Example 171, N-[(3R)-1-{5-[4-chloro-2-(3,5-difluoropyridin-2-yl)-6-fluorophenyl]-4,5-dihydro-1,2-oxazol-3-yl}-4,4-difluoropyrrolidin-3-yl]methanesulfonamide]",109
15,"Cc1cnc([C@@H]2CC(N3C[C@@H](NS(=O)(=O)C4CC4)C(F)(F)C3)=NO2)c(-c2c(F)cccc2F)c1 [Example 33, N-[(3R)-1-{(5S)-5-[3-(2,6-difluorophenyl)-5-methylpyridin-2-yl]-4,5-dihydro-1,2-oxazol-3-yl}-4,4-difluoropyrrolidin-3-yl]cyclopropanesulfonamide]",102
16,"CCC1(c2ncc(F)cc2-c2c(F)cccc2F)CC(N2C[C@@H](NS(C)(=O)=O)C(F)(F)C2)=NO1 (stereo partly drawn) [Example 130, N-[(3R)-1-{5-[3-(2,6-difluorophenyl)-5-fluoropyridin-2-yl]-5-ethyl-4,5-dihydro-1,2-oxazol-3-yl}-4,4-difluoropyrrolidin-3-yl]methanesulfonamide]",104
17,"CCS(=O)(=O)N[C@@H]1CN(C2=NOC(CF)(c3ncc(Cl)cc3-c3c(F)cccc3F)C2)C[C@@H]1F (stereo partly drawn) [Example 115, N-[(3R,4S)-1-{5-[5-chloro-3-(2,6-difluorophenyl)pyridin-2-yl]-5-(fluoromethyl)-4,5-dihydro-1,2-oxazol-3-yl}-4-fluoropyrrolidin-3-yl]ethanesulfonamide]",100
18,"O=S(=O)(CF)N[C@@H]1CN(C2=NOC(c3c(F)cccc3-c3c(F)cccc3F)C2)CC1(F)F (stereo partly drawn) [Example 170, N-{(3R)-4,4-difluoro-1-[5-(2′,3,6′-trifluoro[1,1′-biphenyl]-2-yl)-4,5-dihydro-1,2-oxazol-3-yl]pyrrolidin-3-yl}-1-fluoromethanesulfonamide]",102
19,"Cc1cnc(C2(C)CC(N3C[C@@H](NS(C)(=O)=O)C(F)(F)C3)=NO2)c(-c2c(F)cc(F)cc2F)c1 (stereo partly drawn) [Example 10, N-[(3R)-4,4-difluoro-1-{5-methyl-5-[5-methyl-3-(2,4,6-trifluorophenyl)pyridin-2-yl]-4,5-dihydro-1,2-oxazol-3-yl}pyrrolidin-3-yl]methanesulfonamide]",102
20,"O=S(=O)(CF)N[C@@H]1CN(C2=NOC(c3c(F)cc(F)cc3-c3c(F)cccc3F)C2)CC1(F)F (stereo partly drawn) [Example 169, N-{(3R)-4,4-difluoro-1-[5-(2′,3,5,6′-tetrafluoro[1,1′-biphenyl]-2-yl)-4,5-dihydro-1,2-oxazol-3-yl]pyrrolidin-3-yl}-1-fluoromethanesulfonamide]",98
21,"CS(=O)(=O)N[C@@H]1CN(C2=NOC(c3ncc(C(F)F)cc3-c3c(F)cc(F)cc3F)C2)CC1(F)F (stereo partly drawn) [Example 41, N-[(3R)-1-{5-[5-(difluoromethyl)-3-(2,4,6-trifluorophenyl)pyridin-2-yl]-4,5-dihydro-1,2-oxazol-3-yl}-4,4-difluoropyrrolidin-3-yl]methanesulfonamide]",107
22,"CCS(=O)(=O)N[C@@H]1CN(C2=NOC(c3ncc(Cl)cc3-c3c(F)cccc3F)C2)CC1(F)F (stereo partly drawn) [Example 143, N-[(3R)-1-{5-[5-chloro-3-(2,6-difluorophenyl)pyridin-2-yl]-4,5-dihydro-1,2-oxazol-3-yl}-4,4-difluoropyrrolidin-3-yl]ethanesulfonamide]",109
23,"Cc1cnc([C@@H]2CC(N3CC(F)(F)C(C)(NS(C)(=O)=O)C3)=NO2)c(-c2c(F)cc(F)cc2F)c1 (stereo partly drawn) [Example 64, N-(4,4-difluoro-3-methyl-1-{(5S)-5-[5-methyl-3-(2,4,6-trifluorophenyl)pyridin-2-yl]-4,5-dihydro-1,2-oxazol-3-yl}pyrrolidin-3-yl)methanesulfonamide]",100
24,"CS(=O)(=O)N[C@@H]1CN(C2=NOC(c3c(F)cc(F)c(F)c3-c3c(F)cccc3F)C2)C[C@@H]1F (stereo partly drawn) [Example 166, N-{(3R,4S)-4-fluoro-1-[5-(2′,3,5,6,6′-pentafluoro[1,1′-biphenyl]-2-yl)-4,5-dihydro-1,2-oxazol-3-yl]pyrrolidin-3-yl}methanesulfonamide]",102
